# Measurements published in PMC5454964, “Isolation of Rice Bran Lectins and Characterization of Their Unique Behavior in Caco-2 Cells” (International Journal of Molecular Sciences, 2017).
# Columns and labels:
# [1] = molecular target: T1, RBA1 (rice bran lectin 1) (Oryza sativa, UniProt Q0JF21); experiment: hemagglutination inhibition (rabbit erythrocytes); type: biochemical; details: pH 7.5, room temperature, 2-fold serial dilution
# T1 construct: gene Os04g0173800; disulfide-linked heterodimer of 20- and 12-kDa subunits, 32-33 kDa
# T1 sequence (Q0JF21 29-122): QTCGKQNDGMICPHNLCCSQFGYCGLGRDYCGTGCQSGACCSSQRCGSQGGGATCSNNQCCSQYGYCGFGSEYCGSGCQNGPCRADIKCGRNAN
# T1 sequence (Q0JF21 123-201): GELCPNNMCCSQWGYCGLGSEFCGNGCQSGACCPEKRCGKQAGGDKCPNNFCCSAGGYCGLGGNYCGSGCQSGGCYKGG
# Excerpt: hemagglutination inhibition (rabbit erythrocytes) on RBA1 (rice bran lectin 1)
# [2] = molecular target: T2, RBA2 (rice bran lectin 2) (Oryza sativa, UniProt Q0JF21); experiment: hemagglutination inhibition (rabbit erythrocytes); type: biochemical; details: pH 7.5, room temperature, 2-fold serial dilution
# T2 construct: gene Os04g0173800; noncovalent homodimer of 12-kDa subunits, 25 kDa
# T2 sequence (Q0JF21 123-201): T1 sequence (Q0JF21 123-201)
# Excerpt: hemagglutination inhibition (rabbit erythrocytes) on RBA2 (rice bran lectin 2)
# [3] = molecular target: T3, bovine serum albumin (BSA) (Bos taurus, UniProt P02769); experiment: frontal affinity chromatography, immobilised protein; type: binding; details: pH 7.3, 25 °C, EDTA-PB
# T3 construct: gene ALB
# T3 sequence (P02769 25-607): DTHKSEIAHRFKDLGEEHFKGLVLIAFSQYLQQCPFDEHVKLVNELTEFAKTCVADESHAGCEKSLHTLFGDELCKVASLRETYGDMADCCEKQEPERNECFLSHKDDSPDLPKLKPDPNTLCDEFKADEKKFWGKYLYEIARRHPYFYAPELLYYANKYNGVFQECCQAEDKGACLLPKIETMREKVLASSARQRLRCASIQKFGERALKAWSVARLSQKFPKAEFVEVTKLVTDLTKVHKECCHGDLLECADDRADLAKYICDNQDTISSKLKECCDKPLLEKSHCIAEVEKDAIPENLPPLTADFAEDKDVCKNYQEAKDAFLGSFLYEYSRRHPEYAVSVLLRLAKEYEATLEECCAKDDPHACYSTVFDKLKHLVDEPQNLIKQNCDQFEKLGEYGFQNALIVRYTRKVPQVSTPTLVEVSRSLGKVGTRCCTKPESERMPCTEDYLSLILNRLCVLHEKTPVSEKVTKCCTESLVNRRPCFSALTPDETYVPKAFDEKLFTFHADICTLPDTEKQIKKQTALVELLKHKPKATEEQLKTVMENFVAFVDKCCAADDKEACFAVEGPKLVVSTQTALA
RBA1 [1],RBA2 [2],hemagglutination inhibition concentration [2],Structure (SMILES),V - V0 [3]
0.09 mM,0.39 mM,,CC(=O)N[C@H]1[C@H](O[C@H]2[C@H](O)[C@@H](NC(C)=O)C(O)O[C@@H]2CO)O[C@H](CO)[C@@H](O[C@@H]2O[C@H](CO)[C@@H](O)[C@H](O)[C@H]2NC(C)=O)[C@@H]1O (stereo partly shown) [Tri-N-acetylchitotriose],
0.02 mM,0.04 mM,,CC(=O)N[C@H]1[C@H](O[C@H]2[C@H](O)[C@@H](NC(C)=O)[C@H](O[C@H]3[C@H](O)[C@@H](NC(C)=O)C(O)O[C@@H]3CO)O[C@@H]2CO)O[C@H](CO)[C@@H](O[C@@H]2O[C@H](CO)[C@@H](O[C@@H]3O[C@H](CO)[C@@H](O)[C@H](O)[C@H]3NC(C)=O)[C@H](O)[C@H]2NC(C)=O)[C@@H]1O (stereo partly shown) [Penta-N-acetylchitopentaose],
0.04 mM,,0.04 mM,CC(=O)N[C@H]1[C@H](O[C@H]2[C@H](O)[C@@H](NC(C)=O)[C@H](O[C@H]3[C@H](O)[C@@H](NC(C)=O)C(O)O[C@@H]3CO)O[C@@H]2CO)O[C@H](CO)[C@@H](O[C@@H]2O[C@H](CO)[C@@H](O[C@@H]3O[C@H](CO)[C@@H](O[C@@H]4O[C@H](CO)[C@@H](O)[C@H](O)[C@H]4NC(C)=O)[C@H](O)[C@H]3NC(C)=O)[C@H](O)[C@H]2NC(C)=O)[C@@H]1O (stereo partly shown) [Hexa-N-acetylchitohexaose],
,,,COC(=O)c1ccccc1-c1c2ccc(=N)cc-2oc2cc(N)ccc12 [Rhodamine 123],BSA showed a similar interaction with RH.
,50 mM,,CC(=O)N[C@H]1C(O)O[C@H](CO)[C@H](O)[C@@H]1O (stereo partly drawn) [N-Acetyl D-galactosamine],
25 mM,50 mM,,CC(=O)N[C@H]1C(O)O[C@H](CO)[C@@H](O)[C@@H]1O (stereo partly drawn) [N-Acetyl D-glucosamine],
0.78 mM,6.25 mM,,CC(=O)N[C@H]1[C@H](O[C@H]2[C@H](O)[C@@H](NC(C)=O)C(O)O[C@@H]2CO)O[C@H](CO)[C@@H](O)[C@@H]1O (stereo partly shown) [Di-N-acetylchitobiose],
100 mM,,,N[C@H]1[C@H](O[C@H]2[C@H](O)[C@@H](N)C(O)O[C@@H]2CO)O[C@H](CO)[C@@H](O)[C@@H]1O (stereo partly shown) [Chitobiose],
> 200 mM,0.8 mM,,N[C@H]1C(O)O[C@H](CO)[C@H](O)[C@@H]1O (stereo partly drawn) [D-Galactosamine],
0.04 mM,,0.04 mM,CC(=O)N[C@H]1[C@H](O[C@H]2[C@H](O)[C@@H](NC(C)=O)C(O)O[C@@H]2CO)O[C@H](CO)[C@@H](O[C@@H]2O[C@H](CO)[C@@H](O[C@@H]3O[C@H](CO)[C@@H](O)[C@H](O)[C@H]3NC(C)=O)[C@H](O)[C@H]2NC(C)=O)[C@@H]1O (stereo partly shown) [Tetra-N-acetylchitotetraose],

Structure (SMILES),RBA1 [1],RBA2 [2],hemagglutination inhibition concentration [2],V - V0 [3]
N[C@H]1C(O)O[C@H](CO)[C@@H](O)[C@@H]1O (stereo partly drawn) [D-Glucosamine],> 200 mM,3.1 mM,,
